Assay results reported in US20240150356A1, “Pyrimidine amide compounds and use thereof” (ALPHALA CO., LTD., priority 2019, published 2024).
Read-outs that look alike come from different tables or passages of the source.

Experiments:
Type in all cases: cell-based
[1] = test system: Hep3B cells (hepatocellular carcinoma cell line); assay: In vitro MTS cell viability assay (NCI-60 methodology), Hep3B; conditions: Homo sapiens, 48 h, 2 days drug incubation, 50% reduction vs time zero, read-out: Hep3B LC50
In short: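 Hep3B cells given five 2-fold dilutions of compound for 2 days, with viability by MTS measured at time zero and at end. LC50 is the concentration giving a 50% fall in viable cells relative to the start of treatment, per NCI-60 formula.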

[2] = test system: SW480 (colon adenocarcinoma cell line); assay: In vitro MTS cell viability assay (NCI-60 methodology), SW480; conditions: Homo sapiens, SW480 cells, read-out: SW480 LC50
Procedure: (§1) The cell viability measurement is based on the NCI-60 screening methodology (Nat. Rev. Cancer 6, 813-823, 2006). Briefly, cells are inoculated into 96-well plates at the optimal plating density. After 24 h, one of the two plates for Hep3B cell line is processed to determine a time zero cell viability (Tz) by MTS assay (Promega). Compounds are added over a 2-fold serial dilution to provide a total five drug concentrations plus DMSO control. Plates are incubated for a further 2 days, then measured cell viability by MTS assay [control growth (C) and test growth in the presence of drug at the five concentration levels (Ti)]. The LC50 is calculated from [(Ti−Tz)/Tz]×100=−50, which is the drug concentration resulting in a 50% reduction at the end of the drug treatment as compared to that at the beginning.
(§2) The compounds prepared in Tables 1-10 were tested in three in vitro assays, and the results are shown in Tables 1-10 for Hep3B and Table 11 for SW480 and NCI-H460 shown below. Herein, Hep3B refers to hepatocellular carcinoma cell line, SW480 refers to colon adenocarcinoma cell line, and NCI-H460 refers to human lung cancer cell line.
(§3) Shown in Tables 11 are in vitro activities of exemplary compounds of formula (I).

[3] = test system: NCI-H460 (human lung cancer cell line); assay: In vitro MTS cell viability assay (NCI-60 methodology), NCI-H460; conditions: NCI-H460 cells, read-out: NCI-H460 LC50
Procedure: as §1, §2, §3

O=C(Nc1nc(-c2ccc(F)cc2)nc2c1cnn2-c1ccc(F)cc1)c1ccc([N+](=O)[O-])s1 [Compound 6-115, N-(1,6-bis(4-fluorophenyl)-1H-pyrazolo[3,4-d]pyrimidin-4-yl)-5-nitrothiophene-2-carboxamide]
LC50 ([1]; Table 6, MTS): 220 nM | CC50 [2]: 1910 nM | CC50 [3]: 1130 nM

O=C(Nc1nc(-c2ccc(F)nc2)nc2c1cnn2-c1ccc(C(F)(F)F)cc1)c1ccc([N+](=O)[O-])s1 [Compound 6-54, N-(6-(6-fluoropyridin-3-yl)-1-(4-(trifluoromethyl)phenyl)-1H-pyrazolo[3,4-d]pyrimidin-4-yl)-5-nitrothiophene-2-carboxamide]
LC50 ([1]; Table 6, MTS): 130 nM | CC50 [2]: 340 nM | CC50 [3]: 330 nM

O=C(Nc1nc(-c2ccc(F)nc2)nc2c1cnn2C1CCCCC1)c1ccc([N+](=O)[O-])s1 [Compound 10-14, N-(1-cyclohexyl-6-(6-fluoropyridin-3-yl)-1H-pyrazolo[3,4-d]pyrimidin-4-yl)-5-nitrothiophene-2-carboxamide]
LC50 ([1]; Table 10, MTS): 890 nM | CC50 [2]: 1710 nM | CC50 [3]: 910 nM

CCOc1ccc(-c2nc(NC(=O)c3ccc([N+](=O)[O-])s3)c3cnn(C4CCCCC4)c3n2)cn1 [Compound 10-23, N-(1-cyclohexyl-6-(6-ethoxypyridin-3-yl)-1H-pyrazolo[3,4-d]pyrimidin-4-yl)-5-nitrothiophene-2-carboxamide]
LC50 ([1]; Table 10, MTS): 570 nM | CC50 [2]: 1660 nM | CC50 [3]: 3010 nM

O=C(Nc1nc(-c2ccc(F)c(F)c2)nc2c1cnn2C1CCCCC1)c1ccc([N+](=O)[O-])s1 [Compound 10-40, N-(1-cyclohexyl-6-(3,4-difluorophenyl)-1H-pyrazolo[3,4-d]pyrimidin-4-yl)-5-nitrothiophene-2-carboxamide]
LC50 ([1]; Table 10, MTS): 320 nM | CC50 [2]: 1040 nM | CC50 [3]: 1160 nM

CCOCCOCCOc1ccc(-c2nc(NC(=O)c3ccc([N+](=O)[O-])s3)c3cnn(-c4cccc(Cl)c4)c3n2)cn1 [Compound 6-45, N-(1-(3-chlorophenyl)-6-(6-(2-(2-ethoxyethoxy)ethoxy)pyridin-3-yl)-1H-pyrazolo[3,4-d]pyrimidin-4-yl)-5-nitrothiophene-2-carboxamide]
LC50 ([1]; Table 6, MTS): 220 nM | CC50 [2]: 580 nM | CC50 [3]: 570 nM

Cc1ccc(-n2ncc3c(NC(=O)c4ccc([N+](=O)[O-])s4)nc(-c4ccc(F)cc4F)nc32)cc1 [Compound 6-11]
LC50 ([1]; Table 6, MTS): 280 nM | CC50 [2]: 670 nM | CC50 [3]: 330 nM

COc1nc(NC(=O)c2ccc([N+](=O)[O-])s2)c2cnn(-c3ccc(C(C)(C)C)cc3)c2n1 [Compound 6-57, N-(1-(4-(tert-butyl)phenyl)-6-methoxy-1H-pyrazolo[3,4-d]pyrimidin-4-yl)-5-nitrothiophene-2-carboxamide]
LC50 ([1]; Table 6, MTS): 700 nM | CC50 [2]: 1240 nM | CC50 [3]: 2750 nM

O=C(Nc1nc(-c2ccc(F)c(F)c2)nc2c1cnn2-c1ccccc1)c1ccc([N+](=O)[O-])s1 [Compound 5-44, N-(6-(3,4-difluorophenyl)-1-phenyl-1H-pyrazolo[3,4-d]pyrimidin-4-yl)-5-nitrothiophene-2-carboxamide]
LC50 ([1]; Table 5, MTS): 250 nM | CC50 [2]: 1620 nM | CC50 [3]: 4640 nM

O=C(Nc1nc(-c2ccccc2)nc2c1cnn2-c1ccc(F)cc1)c1ccc([N+](=O)[O-])s1 [Compound 6-110, N-(1-(4-fluorophenyl)-6-phenyl-1H-pyrazolo[3,4-d]pyrimidin-4-yl)-5-nitrothiophene-2-carboxamide]
LC50 ([1]; Table 6, MTS): 230 nM | CC50 [2]: 1250 nM | CC50 [3]: 1410 nM

CC(C)(C)c1ccc(-n2ncc3c(NC(=O)c4ccc([N+](=O)[O-])s4)nc(N4CCC[C@H]4CO)nc32)cc1 [Compound 6-71, (S)—N-(1-(4-(tert-butyl)phenyl)-6-(2-(hydroxymethyl)pyrrolidin-1-yl)-1H-pyrazolo[3,4-d]pyrimidin-4-yl)-5-nitrothiophene-2-carboxamide]
LC50 ([1]; Table 6, MTS): 280 nM | CC50 [2]: 980 nM | CC50 [3]: 440 nM

CC(C)(C)OC(=O)N1CCC(n2ncc3c(NC(=O)c4ccc([N+](=O)[O-])s4)nc(-c4ccc(Cl)cc4)nc32)CC1 [Compound 9-5, tert-butyl 4-(6-(4-chlorophenyl)-4-(5-nitrothiophene-2-carboxamido)-1H-pyrazolo [3,4-d]pyrimidin-1-yl)piperidine-1-carboxylate]
LC50 ([1]; Table 9, MTS): 450 nM | CC50 [2]: 2780 nM | CC50 [3]: 1300 nM

Cc1ccc(-c2nc(NC(=O)c3ccc([N+](=O)[O-])s3)c3cnn(-c4ccc(F)cc4)c3n2)cn1 [Compound 6-120, N-(1-(4-fluorophenyl)-6-(6-methylpyridin-3-yl)-1H-pyrazolo[3,4-d]pyrimidin-4-yl)-5-nitrothiophene-2-carboxamide]
LC50 ([1]; Table 6, MTS): 250 nM | CC50 [2]: 510 nM | CC50 [3]: 1340 nM

COC(=O)[C@@H]1CCCN1c1nc(NC(=O)c2ccc([N+](=O)[O-])s2)c2cnn(-c3ccc(C(C)(C)C)cc3)c2n1 [Compound 6-69, methyl(1-(4-(tert-butyl)phenyl)4-(5-nitrothiophene-2-carboxamido)-1H-pyrazolo[3,4-d]pyrimidin-6-yl)-L-prolinate]
LC50 ([1]; Table 6, MTS): 440 nM | CC50 [2]: 890 nM | CC50 [3]: 2760 nM

O=C(Nc1nc(-c2ccc(F)cc2)nc2c1cnn2-c1cccc(F)c1)c1ccc([N+](=O)[O-])s1 [Compound 6-89, N-(1-(3-fluorophenyl)-6-(4-fluorophenyl)-1H-pyrazolo[3,4-d]pyrimidin-4-yl)-5-nitrothiophene-2-carboxamide]
LC50 ([1]; Table 6, MTS): 120 nM | CC50 [2]: 810 nM | CC50 [3]: 710 nM

O=C(Nc1nc(-c2ccc(F)cc2)nc2c1cnn2-c1ccc(C(F)(F)F)cn1)c1ccc([N+](=O)[O-])s1 [Compound 7-1, N-(6-(4-fluorophenyl)-1-(5-(trifluoromethyl)pyridin-2-yl)-1H-pyrazolo[3,4-d]pyrimidin-4-yl)-5-nitrothiophene-2-carboxamide]
LC50 ([1]; Table 7, MTS): 260 nM | CC50 [2]: > 20000 nM | CC50 [3]: 8630 nM

O=C(Nc1nc(-c2ccc(Cl)nc2)nc2c1cnn2-c1ccc(F)cc1)c1ccc([N+](=O)[O-])s1 [Compound 6-119, N-(6-(6-chloropyridin-3-yl)-1-(4-fluorophenyl)-1H-pyrazolo[3,4-d]pyrimidin-4-yl)-5-nitrothiophene-2-carboxamide]
LC50 ([1]; Table 6, MTS): 80 nM | CC50 [2]: 690 nM | CC50 [3]: 530 nM

O=C(Nc1nc(-c2cncnc2)nc2c1cnn2-c1ccc(F)cc1)c1ccc([N+](=O)[O-])s1 [Compound 6-112, N-(1-(4-fluorophenyl)-6-(pyrimidin-5-yl)-1H-pyrazolo[3,4-d]pyrimidin-4-yl)-5-nitrothiophene-2-carboxamide]
LC50 ([1]; Table 6, MTS): 220 nM | CC50 [2]: 810 nM | CC50 [3]: 970 nM

CC(C)n1ncc2c(NC(=O)c3ccc([N+](=O)[O-])s3)nc(-c3ccc(OC(F)(F)F)cc3)nc21 [Compound 1-22, N-(1-isopropyl-6-(4-(trifluoromethoxy)phenyl)-1H-pyrazolo[3,4-d]pyrimidin-4-yl)-5-nitrothiophene-2-carboxamide]
LC50 ([1]; Table 1, MTS): 730 nM | CC50 [2]: 5380 nM | CC50 [3]: 2180 nM

N#Cc1ccc(-c2nc(NC(=O)c3ccc([N+](=O)[O-])s3)c3cnn(-c4ccccc4)c3n2)cc1 [Compound 5-32, N-(6-(4-cyanophenyl)-1-phenyl-1H-pyrazolo[3,4-d]pyrimidin-4-yl)-5-nitrothiophene-2-carboxamide]
LC50 ([1]; Table 5, MTS): 110 nM | CC50 [2]: 2770 nM | CC50 [3]: 1160 nM

O=C(Nc1nc(-c2ccc(Cl)cc2Cl)nc2c1cnn2-c1ccccc1)c1ccc([N+](=O)[O-])s1 [Compound 5-49]
LC50 ([1]; Table 5, MTS): 270 nM | CC50 [2]: 3750 nM | CC50 [3]: 1220 nM

O=C(Nc1nc(-c2cccc(F)c2)nc2c1cnn2-c1ccc(F)cc1)c1ccc([N+](=O)[O-])s1 [Compound 6-114, N-(6-(3-fluorophenyl)-1-(4-fluorophenyl)-1H-pyrazolo[3,4-d]pyrimidin-4-yl)-5-nitrothiophene-2-carboxamide]
LC50 ([1]; Table 6, MTS): 200 nM | CC50 [2]: 840 nM | CC50 [3]: 350 nM

O=C(Nc1nc(N2CCC(F)(F)C2)nc2c1cnn2-c1ccccc1)c1ccc([N+](=O)[O-])s1 [Compound 5-6, N-(6-(3,3-difluoropyrrolidin-1-yl)-1-phenyl-1H-pyrazolo[3,4-d]pyrimidin-4-yl)-5-nitrothiophene-2-carboxamide]
LC50 ([1]; Table 5, MTS): 530 nM | CC50 [2]: 1960 nM | CC50 [3]: 1460 nM

O=C(Nc1nc(-c2ccc(F)nc2)nc2c1cnn2-c1cccc(Cl)c1)c1ccc([N+](=O)[O-])s1 [Compound 6-36, N-(1-(3-chlorophenyl)-6-(6-fluoropyridin-3-yl)-1H-pyrazolo[3,4-d]pyrimidin-4-yl)-5-nitrothiophene-2-carboxamide]
LC50 ([1]; Table 6, MTS): 90 nM | CC50 [2]: 2800 nM | CC50 [3]: 670 nM
